{"source": "patent US11964041B2", "about": "“Compositions comprising levan and use thereof” (GAN SHMUEL FOODS LTD., priority 2018, dated 2024)", "type_in_all_cases": "cell-based", "key": {"[1]": {"test_system": "human skin explants", "test": "Epidermal viability by MTT in human skin organ culture", "details": "10% SDS, positive control, 48 hr", "procedure": "(§1) The human skin organ culture was obtained from a healthy patient undergoing plastic surgery (person). The study was initiated at the day of surgery.\n(§2) Fixed size skin explant pieces (0.64 cm^2) were cut from the skin tissue, using a designated press apparatus.\n(§3) The skin pieces were prepared and maintained in air liquid interphase; the explants were laid in 6-well culture plates containing skin culture medium (Dulbecco Minimal Essential Medium (DMEM) supplemented with 100 U/ml penicillin and 100 μg/ml streptomycin), dermal side down in the medium and epidermis phasing up. The pieces were left to recover at 37° C. with 5% CO2 overnight. […]\n(§4) The following control groups were also included in this study: Naïve group (Group 1), Vehicle group (mock treatment—hexose, Group 2), and positive control groups for viability and proliferation (10% SDS, Group 3 and 10 ng/ml EGF, Group 4, respectively). Hyaluronic acid was evaluated in this system (0.2%, Group 5). […]\nThe pieces were incubated at 37° C. with 5% CO2 under humidified atmosphere for 48 hr. […] The epidermal viability was evaluated by MTT, according to standard operating procedure (SOP). […] Concomitantly, the epidermal turnover rate was determined on the second set of test groups by BrdU assay according to the kit's manufacturer instructions."}, "[2]": {"test_system": "Staphylococcus epidermidis", "test": "Bacterial growth, minimal inhibition concentration (MIC) assay", "details": "Ampicillin 100 μg/ml, positive control", "procedure": "The experiment was conducted in Staphylococcus epidermidis. Two Test Items were evaluated in this study; Levan and a Commercial reference (C.R.). The assay was carried out in triplicates. The in vitro activity of the Test items was evaluated by minimal inhibition concentration (MIC) assay. This was measured spectrometrically. The increase bacteria number versus time of incubation w/o or with increasing concentrations of the Test items was plotted. Streak plate isolation technique was performed to isolate a single homogenous colony, according to SOP. One colony of each bacterial strain was inoculated from agar plate into U-shape falcon tube at a final volume of 4 ml in BHI liquid broth. Cultures were incubated in a bacterial incubator-shaker at 37° C. with shaking at 250 rpm overnight. The cultures were diluted and grown to mid-log phase (O.D. Approx. 0.5; 600 nm). The exact O.D. was recorded [0.506]. Dose response analysis of six concentrations for each Test Item was performed in the bacteria as described in Table 7. The following control groups were included in this study: Naïve group (Group 1), Vehicle group (mock treatment—hexose, Group 2) and positive control groups (Ampicillin (100 μg/ml), Group 3). […] The absorbance was recorded at 600 nm. The absorbance of the blank control was subtracted from all measurements (0.107)."}, "[3]": {"test_system": "human skin explants", "test": "Epidermal turnover rate by BrdU assay in human skin organ culture", "details": "hyaluronic acid 0.2% with vehicle", "procedure": "as §1, §2, §3, §4\nThe pieces were incubated at 37° C. with 5% CO2 under humidified atmosphere for 48 hr. […] The epidermal viability was evaluated by MTT, according to standard operating procedure (SOP). […] Concomitantly, the epidermal turnover rate was determined on the second set of test groups by BrdU assay according to the kit's manufacturer instructions. […]\nColorimetric evaluation of the turnover rate was recorded by Enzyme-Linked Immunosorbent Assay (ELISA) reader."}}}
{"molecule": "CCCCCCCCCCCCOS(=O)(=O)[O-].[Na+]", "note": "[SDS]", "values": [{"measurement": "skin viability (MTT)", "setting": "[1]", "value": "reduced skin viability"}]}
{"molecule": "CC1(C)S[C@@H]2[C@H](NC(=O)[C@H](N)c3ccccc3)C(=O)N2[C@H]1C(=O)O", "note": "[Ampicillin]", "values": [{"measurement": "bacterial growth (O.D. 600 nm)", "setting": "[2]", "value": "effectively blocked the bacterial growth"}]}
{"molecule": "Hyaluronic acid", "values": [{"measurement": "effectiveness compared with the disclosed levan-based composition", "setting": "[3]", "value": "less effective"}]}
